Results reported in paper PMC11881136, “Development of a Novel ^18F-Labeled Radioligand for Imaging Phosphodiesterase 7 with Positron Emission Tomography” (Molecular Pharmaceutics, 2025).
Where two headings read alike, the source gives them in different places. Each block holds one molecule with its values, some of them ahead of it.

Experiments:
PDE7 [1] = assay: Phosphodiesterase 7 inhibition assay (Eurofins); assay type: biochemical; conditions: for Inhibiton at 0.5 nM: PDE7, 0.5 nM
Protocol: (§1) The inhibition assay of phosphodiesterase 7 with compounds 1–7 was performed by Eurofins. The inhibition assay of other phosphodiesterases with compound 7 was performed by Reaction Biology Corporation at a concentration of 3 μM.

other PDEs subfamilies = assay: Inhibition assay of other phosphodiesterases (Reaction Biology Corporation); assay type: biochemical; conditions: 3 μM; other than PDE4
Protocol: as §1

PDE4 = assay: Inhibition assay of other phosphodiesterases: PDE4; assay type: biochemical; conditions: 3 μM
Protocol: as §1

PDE4B = biological target: T1, PDE4B (Homo sapiens, UniProt Q07343); assay: Inhibition assay of other phosphodiesterases: PDE4B; assay type: biochemical
T1 construct: purchased Reaction Biology Corporation
Protocol: as §1

[2] = Log D, shake flask method; assay type: physicochemical; conditions: n-octanol/PBS
Protocol: PBS buffer (0.01 M) and n-octanol were presaturated with each other overnight before the measurement. The PDE7 ligand [^18F]7, PBS (0.01 M, 5 mL), and n-octanol (5 mL) were combined and vortexed for 3 min, and then centrifuged (∼14 000 rpm, 5 min). The PBS fraction and n-octanol fraction were weighted and counted by γ counter. The log D was calculated as log[(radioactivityn-octanol/weightn-octanol)/(radioactivityPBS/weightPBS)].

66 major CNS targets = assay: Off-target binding profile against 66 major CNS targets; conditions: 10 μM; except 5-HT2B and Sigma1
5-HT2B = 5-HT2B (Homo sapiens, UniProt P41595); assay: Off-target binding: 5-HT2B
Sigma1 = Sigma1 (Homo sapiens, UniProt Q99720); assay: Off-target binding: Sigma1
PDE7 [3] = assay: In vitro autoradiography in rat brain sections; assay type: binding; conditions: blocker 10 μM
Protocol: Autoradiography studies were conducted as previously reported.[24],[25] In brief, SD rat brain sections ([…]) were preincubated with buffer (Tris-HCl, 50 mM) at ambient temperature for 20 min and then incubated with [^18F]7 (1 μCi/mL) for 30 min. After that, the brain sections were washed with cold buffer and water, dried with cold air, and exposed to the phosphor plate (12 h). In blocking studies, brain sections were incubated with [^18F]7 in the presence of compound 7 (10 μM) or P7–2104 (10 μM).

PDE7 [4] = assay: PET imaging in rat brains; assay type: in vivo
Protocol: PET imaging was carried out as previously reported.[26] [^18F]7 (30–40 uCi) was administered to SD rats via the tail vein, and dynamic scans were conducted with a G8 scanner (Sofie) for 1 h (n = 4). In blocking studies, elacridar (5 mg/kg) was administered intravenously at 20 min before the administration of [^18F]7, and P7–2104 or 7 (3 mg/kg) was administered intravenously at 10 min before the administration of [^18F]7 (n = 3). PET data were analyzed with PMOD (PMOD Technologies LLC, Switzerland).

PDE7 [5] = biological target: PDE7; set-up: method as in PMID 32246980; conditions: read-out: binding affinity KD toward PDE7; cited from earlier work
[6] = set-up: method as in PMID 32246980; conditions: cited from earlier work
PDE7 [7] = system: PDE7; set-up: method as in PMID 26330158; conditions: read-out: PDE7 inhibitory potency IC50; cited from earlier work
[8] = In vitro stability in formulation solution (saline); assay type: physicochemical; conditions: up to 60 or 120 min
[9] = In vitro stability in mouse serum; assay type: in vitro ADME; conditions: up to 60 or 120 min
[10] = In vitro stability in rat serum; assay type: in vitro ADME; conditions: up to 60 or 120 min
[11] = In vitro stability in NHP serum; assay type: in vitro ADME; conditions: up to 60 or 120 min
[12] = In vitro stability in human serum; assay type: in vitro ADME; conditions: up to 60 or 120 min
[13] = Ex vivo whole-body biodistribution in CD-1 mice; set-up: species or system mouse
Protocol: Whole-Body biodistribution was carried out as previously reported.[27],[28] [^18F]7 (10 μCi/100 μL) was administered intravenously to CD-1 mice, which were sacrificed at 5, 15, 30, and 60 min after administration of [^18F]7 (n = 3). Tissues of interest were collected, weighted, and measured by a γ counter.

[14] = Radiometabolic analysis in rats; assay type: in vivo; conditions: rat, 30 min post administration
Protocol: [^18F]7 was injected via the tail vein of SD rats and then euthanized 30 min after administration of [^18F]7 (0.1 mCi per rat, n = 2). The brain was collected, homogenized, and cold acetonitrile (0.2 mL) was added then centrifuged (14 000g, 5 min) at 4 °C. This step was repeated until there was no obvious precipitation formed. Then the supernatant was injected into a radioHPLC with unlabeled 7 as the internal standard. Both [^18F]7 and its ^18F-metabolites were collected by HPLC and then measured by γ counter. The same procedure was conducted for plasma.

T1 sequence (Q07343 whole entry, species assumed): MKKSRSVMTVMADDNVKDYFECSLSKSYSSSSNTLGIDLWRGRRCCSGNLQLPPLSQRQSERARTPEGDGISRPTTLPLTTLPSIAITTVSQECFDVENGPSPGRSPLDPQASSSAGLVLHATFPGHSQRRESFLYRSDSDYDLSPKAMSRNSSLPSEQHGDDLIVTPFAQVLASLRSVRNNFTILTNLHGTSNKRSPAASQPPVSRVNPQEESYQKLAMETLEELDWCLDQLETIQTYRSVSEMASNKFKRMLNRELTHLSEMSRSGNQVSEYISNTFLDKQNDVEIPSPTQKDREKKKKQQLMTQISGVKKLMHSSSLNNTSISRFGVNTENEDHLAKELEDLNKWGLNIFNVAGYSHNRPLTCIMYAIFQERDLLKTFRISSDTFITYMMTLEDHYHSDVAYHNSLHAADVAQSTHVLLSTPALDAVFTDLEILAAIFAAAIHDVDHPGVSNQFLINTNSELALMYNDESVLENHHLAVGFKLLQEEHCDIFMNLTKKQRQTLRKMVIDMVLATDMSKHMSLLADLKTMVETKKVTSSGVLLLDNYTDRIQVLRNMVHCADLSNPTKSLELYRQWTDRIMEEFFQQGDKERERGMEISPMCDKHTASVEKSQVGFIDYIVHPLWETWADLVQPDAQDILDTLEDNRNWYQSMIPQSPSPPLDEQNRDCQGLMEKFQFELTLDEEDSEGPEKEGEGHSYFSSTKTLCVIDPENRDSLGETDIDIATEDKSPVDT
Sigma1, sequence (Q99720 whole entry): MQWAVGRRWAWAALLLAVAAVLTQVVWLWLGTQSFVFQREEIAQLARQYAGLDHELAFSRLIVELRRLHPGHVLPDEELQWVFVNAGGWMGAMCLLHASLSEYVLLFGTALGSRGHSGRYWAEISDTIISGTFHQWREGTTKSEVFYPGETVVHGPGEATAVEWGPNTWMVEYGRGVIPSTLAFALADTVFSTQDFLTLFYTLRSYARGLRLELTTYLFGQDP
5-HT2B, sequence (P41595 whole entry, species assumed): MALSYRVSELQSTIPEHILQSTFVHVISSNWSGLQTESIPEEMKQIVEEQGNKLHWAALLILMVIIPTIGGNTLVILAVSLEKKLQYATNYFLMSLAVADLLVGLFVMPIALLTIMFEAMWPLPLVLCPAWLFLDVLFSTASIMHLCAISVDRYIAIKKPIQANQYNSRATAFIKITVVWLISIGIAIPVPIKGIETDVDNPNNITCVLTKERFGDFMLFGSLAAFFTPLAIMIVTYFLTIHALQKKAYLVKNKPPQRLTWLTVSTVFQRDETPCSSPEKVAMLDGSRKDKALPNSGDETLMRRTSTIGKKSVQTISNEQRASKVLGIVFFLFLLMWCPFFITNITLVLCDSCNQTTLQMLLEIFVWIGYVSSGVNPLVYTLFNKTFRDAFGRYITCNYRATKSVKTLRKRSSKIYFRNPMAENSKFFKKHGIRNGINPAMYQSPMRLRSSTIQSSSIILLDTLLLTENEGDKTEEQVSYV

SMILES: CN(C)C(=O)c1ccc(F)cc1Oc1ccc(Cl)c2c1C1(CCCCC1)OC(=O)N2 [Compound 2, 2-((8-Chloro-2-oxo-1,2-dihydrospiro[benzo[d][1,3]oxazine-4,1′-cyclohexan]-5-yl)oxy)-4-fluoro-N,N-dimethylbenzamide]
Inhibiton at 0.5 nM (PDE7 [1]): 6%

SMILES: CN(C)C(=O)c1cc(F)ccc1Oc1ccc(Cl)c2c1C1(CCCCC1)OC(=O)N2 [Compound 3, 2-((8-Chloro-2-oxo-1,2-dihydrospiro[benzo[d][1,3]oxazine-4,1′-cyclohexan]-5-yl)oxy)-5-fluoro-N,N-dimethylbenzamide]
Inhibiton at 0.5 nM (PDE7 [1]): -17%

SMILES: CN(C)C(=O)c1cccc(F)c1Oc1ccc(Cl)c2c1C1(CCCCC1)OC(=O)N2 [Compound 1, 2-((8-Chloro-2-oxo-1,2-dihydrospiro[benzo[d][1,3]oxazine-4,1′-cyclohexan]-5-yl)oxy)-3-fluoro-N,N-dimethylbenzamide]
IC50 (PDE7 [1]): 0.41 nM
Inhibiton at 0.5 nM (PDE7 [1]): 50%
Kd (PDE7 [5]): 0.8 nM
brain uptake [6]: 0.25 %ID/g

SMILES: O=C1Nc2c(Cl)ccc(OCC[18F])c2C2(CCCCC2)N1 [[^18F]MICA-003]
IC50 (PDE7 [7]): 17 nM

Now from value to molecule, other results behind:

Inhibiton at 0.5 nM (PDE7 [1]): -10%
SMILES: CN(C)C(=O)c1c(F)cccc1Oc1ccc(Cl)c2c1C1(CCCCC1)OC(=O)N2 [Compound 4, 2-((8-Chloro-2-oxo-1,2-dihydrospiro[benzo[d][1,3]oxazine-4,1′-cyclohexan]-5-yl)oxy)-6-fluoro-N,N-dimethylbenzamide]

IC50 (PDE7 [1]): 0.04 nM
Inhibiton at 0.5 nM (PDE7 [1]): 68%
SMILES: O=C1Nc2c(Cl)ccc(Oc3c(F)cccc3C(=O)N3CCC3)c2C2(CCCCC2)O1 [Compound 5, 5-(2-(Azetidine-1-carbonyl)-6-fluorophenoxy)-8-chlorospiro[benzo[d][1,3]oxazine-4,1′-cyclohexan]-2(1H)-one]

Inhibiton at 0.5 nM (PDE7 [1]): -13%
SMILES: CN(C(=O)c1cccc(F)c1Oc1ccc(Cl)c2c1C1(CCCCC1)OC(=O)N2)C1CC1 [Compound 6, 2-((8-Chloro-2-oxo-1,2-dihydrospiro[benzo[d][1,3]oxazine-4,1′-cyclohexan]-5-yl)oxy)-N-cyclopropyl-3-fluoro-N-methylbenzamide]

IC50 (PDE7 [1]): 0.18 nM
selectivity for PDE7 over other PDE subfamilies (PDE7 [1]): > 400 fold
Inhibiton at 0.5 nM (PDE7 [1]): 51%
IC50 (PDE4B): 77.3 nM
PDE4B inhibition (PDE4B; 3 μM): 92 % inhibition
logD [2]: 3.27
off-target binding (>50% inhibition) against 66 major CNS targets (66 major CNS targets): No significant off-target binding
Ki (5-HT2B): 3360 nM
Ki (Sigma1): 7410 nM
SMILES: O=C1Nc2c(Cl)ccc(Oc3c(F)cccc3C(=O)N3CC(F)C3)c2C2(CCCCC2)O1 [Compound 7, 8-Chloro-5-(2-fluoro-6-(3-fluoroazetidine-1-carbonyl)phenoxy)spiro[benzo[d][1,3]oxazine-4,1′-cyclohexan]-2(1H)-one]
inhibition of other PDEs subfamilies (other PDEs subfamilies): < 50 % inhibition
activity against PDE4 (PDE4): moderately active
reduction of [18F]7 radioactivity signal in striatum (autoradiography blocking) (PDE7 [3]): 56%
reduction of [18F]7 SUVpeak in striatum (PET blocking) (PDE7 [4]; blocker 3 mg/kg i.v. with elacridar 5 mg/kg, SD rats): 51%

IC50 (PDE7 [1]): 0.18 nM
selectivity for PDE7 over other PDE subfamilies (PDE7 [1]): > 400 fold
SUVpeak in striatum after elacridar (PDE7 [4]; SD rats, elacridar 5 mg/kg i.v. 20 min before tracer): 2.8
SUVpeak in striatum, baseline (PDE7 [4]; SD rats, i.v., baseline): 0.35
increase of SUVpeak in striatum by elacridar (PDE7 [4]; elacridar 5 mg/kg vs baseline): 700%
bone uptake at 5 min ([13]; 5 min): 1.6 %ID/g
bone uptake at 60 min ([13]; 60 min): 0.3 %ID/g
initial radioactivity in liver, small intestine, kidney, pancreas, lung, and heart ([13]; i.v., initially): > 5 %ID/g
brain uptake (biodistribution) ([13]; initially): low uptake
intact parent fraction in brain [14]: 92%
intact parent fraction in plasma [14]: 67%
SMILES: O=C1Nc2c(Cl)ccc(Oc3c(F)cccc3C(=O)N3CC([18F])C3)c2C2(CCCCC2)O1 [[^18F]7]
in vitro stability in saline [8]: no obvious decomposition or metabolite was observed
in vitro stability in mouse serum [9]: no obvious decomposition or metabolite was observed
in vitro stability in rat serum [10]: no obvious decomposition or metabolite was observed
in vitro stability in NHP serum [11]: no obvious decomposition or metabolite was observed
in vitro stability in human serum [12]: no obvious decomposition or metabolite was observed
